How the values were obtained:
[1] = type: binding; conditions: 2.0 μM protein in PBS-T, 150 μl/min for 5 min, room temperature; FIG. 3
[2] = test system: A/Fukuoka/C29/85(H3N2); type: binding, influenza virus; conditions: virus 100 HAU in PBS, 150 μl/min for 5 min, room temperature
[3] = test system: A/Guizhou/54/89(H3N2); type: binding, influenza virus; conditions: virus 100 HAU in PBS, 150 μl/min for 5 min, room temperature

Substance | interaction of protein with immobilized sugar chains (increase in brightness at spot positions, SPR) [1] | interaction between sugar chain and influenza virus (SPR signal intensity) [2] | interaction between sugar chain and influenza virus (SPR signal intensity) [3]
wheat germ agglutinin | interacted with the sugar chains immobilized at the spot positions | – | –
concanavalin A | interacted with the sugar chains immobilized at the spot positions | – | –
Neu5Acα2-6Galβ1-4Glc | – | strong interaction | limited interaction
bovine serum albumin | increase in brightness at none of the spot positions | – | –

— patent US9239329B2 (priority 2006, dated 2016)
